In patent US20130072534A1 (LABORATORIOS DEL DR. ESTEVE, S.A., priority 2009, published 2013):

Tested on: formalin-induced nociceptive behaviour
Test: Formalin test in mice (phase II licking/biting of the injected paw)
Type: in vivo, Male CD-1 mice
Conditions: i.p.; for efficacy of analgesic effect (in words): formalin test
Procedure: To assess the reliability of the efficacy and potency of the compounds and combinations tested, the nociceptive response was assessed by the formalin test. The behaviour analysed was the total time spent in licking and biting of the injected paw measured during the 15-30 min period (phase II) (Dubuisson D., et al. Pain 1977, 4, 161 and Rosland et al., Pain 1990, 42, 235).
All drugs prepared at various concentrations were dissolved in 0.5% hydroxypropyl methylcellulose in distilled water and coadministered in a volume of 10 ml/kg per mice through the intraperitoneal (i.p.) route. Control animals received the same volume of vehicle.
Male CD-1 mice weighing between 20 and 25 g (Charles River Laboratories) are used for all the experiments. The animals were housed in a temperature-controlled room (21±1° C.) with air exchange every 20 min and an automatic 12-h light/dark cycle (light from 08.00 to 20.00 h). They were fed a standard laboratory diet and tap water ad libitum until the beginning of the experiments. The experiments were performed during the light phase (09.00-15.00 h). Naive animals were used throughout.
A concentrated formalin solution was diluted with saline to the appropriate concentration (2.5%). Formalin test was performed as described in Rosland et al., Pain 1990, 42, 235, with slight modifications. 20 microliters of the formalin solution was injected subcutaneously (s.c.) into the dorsal surface of the right hind paw of the mouse, using a Hamilton microsyringe with a 301/2-gauge needle. The nociceptive behaviour (licking and/or biting) was recorded from 15 to 35 min after formalin injection as an indicator of the pain response.
The method is based on the comparison of the effect of several doses of a combination at a determined ratio with respect to the effects achieved using different doses of each of the two agents. […] The theoretical additive dose (Zadd) for a combination was then calculated and compared with the experimental ED50 of the combination (Zt) as described in Tallarida, Drug synergism 2001, 298, 865-872. […]

SMILES | efficacy of analgesic effect (in words) | maximum efficacy (analgesic effect) (formalin test (2.5% formalin s.c. into hind paw))
COc1ccc(C(CN(C)C)C2(O)CCCCC2)cc1 (racemic) [Venlafaxine, (rac)-1-[2-dimethylamino-1-(4-methoxyphenyl)-ethyl]cyclohexanol] | full efficacy | –
Cc1ccc(-c2cc(C(F)(F)F)nn2-c2ccc(S(N)(=O)=O)cc2)cc1 [celecoxib, 4-[5-(4-methylphenyl)-3-(trifluoromethyl)pyrazol-1-yl]benzenesulfonamide] | ceiling effect | 45.78%
